Assay results published in ChEMBL document CHEMBL5131499, “Design, synthesis and glycosidase inhibition of C-4 branched LAB and DAB derivatives” (Eur J Med Chem, 2022).

Assays:
Helix pomatia = test: Inhibition of snail beta-mannosidase assessed as release of p-nitrophenol at 1000 uM using p-nitrophenyl glycoside as substrate by spectrometric assay relative control
Aspergillus niger = test: Inhibition of Aspergillus niger amyloglucosidase assessed as release of p-nitrophenol at 1000 uM using p-nitrophenyl glycoside as substrate by spectrometric assay relative to control
[1] = biological target: T1, Lysosomal alpha-glucosidase (Homo sapiens, UniProt P10253); test: Inhibition of human lysosomal alpha glucosidase assessed as release of p-nitrophenol using p-nitrophenyl glycoside as substrate by spectrometric assay
Escherichia coli = test: Inhibition of Escherichia coli beta-glucuronidase assessed as release of p-nitrophenol at 1000 uM using p-nitrophenyl glycoside as substrate by spectrometric assay relative to control
Bos taurus [2] = species on record: Bos taurus; test: Inhibition of bovine liver beta-glucronidase assessed as release of p-nitrophenol at 1000 uM using p-nitrophenyl glycoside as substrate by spectrometric assay relative to control
[3] = biological target: T2, Alpha-mannosidase (Canavalia ensiformis) (UniProt C0HJB3); test: Inhibition of jack bean alpha-mannosidase assessed as release of p-nitrophenol at 1000 uM using p-nitrophenyl glycoside as substrate by spectrometric assay relative to control
T2 sequence (whole entry): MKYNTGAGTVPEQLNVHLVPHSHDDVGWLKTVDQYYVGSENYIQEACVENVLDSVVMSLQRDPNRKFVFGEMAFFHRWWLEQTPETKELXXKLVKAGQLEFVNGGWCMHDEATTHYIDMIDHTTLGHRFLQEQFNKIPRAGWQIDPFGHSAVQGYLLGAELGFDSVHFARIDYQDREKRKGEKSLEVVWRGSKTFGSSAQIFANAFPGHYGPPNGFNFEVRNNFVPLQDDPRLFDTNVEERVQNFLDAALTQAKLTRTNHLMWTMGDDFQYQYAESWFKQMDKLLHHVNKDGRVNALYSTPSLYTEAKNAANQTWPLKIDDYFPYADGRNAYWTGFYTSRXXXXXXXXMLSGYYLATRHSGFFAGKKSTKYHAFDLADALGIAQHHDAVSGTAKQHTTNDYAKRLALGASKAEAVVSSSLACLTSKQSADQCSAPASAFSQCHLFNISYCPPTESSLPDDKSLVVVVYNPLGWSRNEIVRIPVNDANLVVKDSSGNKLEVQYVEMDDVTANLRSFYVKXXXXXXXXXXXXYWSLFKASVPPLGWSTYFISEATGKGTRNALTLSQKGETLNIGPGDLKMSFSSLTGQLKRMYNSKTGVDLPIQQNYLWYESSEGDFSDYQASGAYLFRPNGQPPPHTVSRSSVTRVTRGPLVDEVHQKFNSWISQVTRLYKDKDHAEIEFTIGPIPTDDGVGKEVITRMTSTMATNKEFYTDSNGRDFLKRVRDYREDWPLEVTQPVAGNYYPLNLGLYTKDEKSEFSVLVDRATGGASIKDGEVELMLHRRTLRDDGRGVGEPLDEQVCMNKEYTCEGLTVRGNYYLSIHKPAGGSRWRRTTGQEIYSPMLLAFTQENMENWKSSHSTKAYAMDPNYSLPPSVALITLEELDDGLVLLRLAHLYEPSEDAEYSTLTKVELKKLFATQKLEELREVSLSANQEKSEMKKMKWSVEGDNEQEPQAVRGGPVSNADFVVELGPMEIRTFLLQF

Prunus dulcis = test: Inhibition of almond beta-glucosidase assessed as release of p-nitrophenol at 1000 uM using p-nitrophenyl glycoside as substrate by spectrometric assay relative to control
Penicillium decumbens = test: Inhibition of Penicillium decumbens alpha-L-rhamnosidase assessed as release of p-nitrophenol at 1000 uM using p-nitrophenyl glycoside as substrate by spectrometric assay relative to control
[4] = biological target: Alpha-galactosidase (Coffea arabica) (UniProt Q42656); test: Inhibition of coffee beans alpha-galactosidase assessed as release of p-nitrophenol at 1000 uM using p-nitrophenyl glycoside as substrate by spectrometric assay relative to control
Alpha-galactosidase (Coffea arabica), sequence (Q42656 16-378 limits assumed): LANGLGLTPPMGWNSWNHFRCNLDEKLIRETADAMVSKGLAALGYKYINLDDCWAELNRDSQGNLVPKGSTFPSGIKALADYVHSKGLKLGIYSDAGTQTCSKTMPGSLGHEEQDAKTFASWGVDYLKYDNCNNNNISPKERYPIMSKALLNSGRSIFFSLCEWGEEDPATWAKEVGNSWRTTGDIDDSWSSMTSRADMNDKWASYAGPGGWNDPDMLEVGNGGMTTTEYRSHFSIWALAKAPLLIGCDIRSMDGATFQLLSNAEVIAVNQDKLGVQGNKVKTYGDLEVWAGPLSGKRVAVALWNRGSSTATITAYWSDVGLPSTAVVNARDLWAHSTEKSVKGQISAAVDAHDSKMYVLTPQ

Sus scrofa = species on record: Sus scrofa; test: Inhibition of porcine kidney alpha-trehalase assessed as release of p-nitrophenol at 1000 uM using p-nitrophenyl glycoside as substrate by spectrometric assay relative to control
[5] = biological target: T3, Sucrase-isomaltase, intestinal (Rattus norvegicus, UniProt P23739); test: Inhibition of rat intestinal sucrase assessed as release of p-nitrophenol using p-nitrophenyl glycoside as substrate by spectrometric assay
T3 sequence (P23739 1-1013 limits assumed): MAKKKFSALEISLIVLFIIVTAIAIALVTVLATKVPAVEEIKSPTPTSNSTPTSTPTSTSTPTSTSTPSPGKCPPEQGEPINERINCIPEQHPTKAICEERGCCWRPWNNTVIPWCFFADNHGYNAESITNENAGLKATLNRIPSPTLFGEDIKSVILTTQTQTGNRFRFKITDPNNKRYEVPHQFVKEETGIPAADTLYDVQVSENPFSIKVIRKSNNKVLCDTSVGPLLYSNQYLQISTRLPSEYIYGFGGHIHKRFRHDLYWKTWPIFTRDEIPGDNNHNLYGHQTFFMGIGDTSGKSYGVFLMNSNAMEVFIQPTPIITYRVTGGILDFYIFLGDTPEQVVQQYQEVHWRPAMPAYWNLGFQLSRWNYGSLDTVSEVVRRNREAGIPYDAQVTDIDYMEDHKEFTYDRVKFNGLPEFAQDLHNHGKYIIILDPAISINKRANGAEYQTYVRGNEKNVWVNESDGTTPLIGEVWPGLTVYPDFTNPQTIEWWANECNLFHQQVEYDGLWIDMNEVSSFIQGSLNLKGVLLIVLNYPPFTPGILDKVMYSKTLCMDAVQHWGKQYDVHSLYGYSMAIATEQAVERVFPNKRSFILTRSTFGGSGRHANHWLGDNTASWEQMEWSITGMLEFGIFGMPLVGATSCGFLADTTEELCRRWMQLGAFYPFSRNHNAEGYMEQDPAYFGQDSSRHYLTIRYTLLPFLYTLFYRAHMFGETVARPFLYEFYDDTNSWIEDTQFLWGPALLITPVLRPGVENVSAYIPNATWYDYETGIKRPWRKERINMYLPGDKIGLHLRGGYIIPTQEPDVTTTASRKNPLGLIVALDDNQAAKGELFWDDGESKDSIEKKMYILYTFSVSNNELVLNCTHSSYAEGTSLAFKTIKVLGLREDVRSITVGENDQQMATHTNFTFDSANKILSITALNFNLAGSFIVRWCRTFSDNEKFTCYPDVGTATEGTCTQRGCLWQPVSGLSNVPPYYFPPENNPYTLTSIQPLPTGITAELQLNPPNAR
T3 sequence (P23739 1014-1841 limits assumed): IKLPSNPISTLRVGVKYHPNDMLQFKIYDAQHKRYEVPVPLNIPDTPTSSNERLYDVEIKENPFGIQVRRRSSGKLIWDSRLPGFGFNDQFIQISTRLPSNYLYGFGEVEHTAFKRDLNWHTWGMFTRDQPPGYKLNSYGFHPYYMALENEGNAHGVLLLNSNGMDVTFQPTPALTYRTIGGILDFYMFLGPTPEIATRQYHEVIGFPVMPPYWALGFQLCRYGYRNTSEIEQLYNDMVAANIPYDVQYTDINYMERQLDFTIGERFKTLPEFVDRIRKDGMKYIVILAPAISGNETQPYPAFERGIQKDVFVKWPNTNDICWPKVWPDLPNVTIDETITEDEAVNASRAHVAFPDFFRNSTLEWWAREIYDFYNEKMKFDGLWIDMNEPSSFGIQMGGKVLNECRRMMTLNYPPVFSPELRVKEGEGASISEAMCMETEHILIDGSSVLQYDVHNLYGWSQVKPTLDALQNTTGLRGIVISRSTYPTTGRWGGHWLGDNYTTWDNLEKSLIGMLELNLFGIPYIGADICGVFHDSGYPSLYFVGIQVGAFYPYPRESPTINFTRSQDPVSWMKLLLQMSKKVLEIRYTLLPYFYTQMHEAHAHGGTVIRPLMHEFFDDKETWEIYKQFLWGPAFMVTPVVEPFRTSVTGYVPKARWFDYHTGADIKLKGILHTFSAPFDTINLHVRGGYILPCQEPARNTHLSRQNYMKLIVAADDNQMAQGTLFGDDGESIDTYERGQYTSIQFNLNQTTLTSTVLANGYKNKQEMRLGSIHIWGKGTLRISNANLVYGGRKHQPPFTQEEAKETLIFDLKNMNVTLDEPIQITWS

[6] = biological target: T4, Tissue alpha-L-fucosidase (Bos taurus) (UniProt Q2KIM0); test: Inhibition of bovine kidney alpha-L-fucosidase assessed as release of p-nitrophenol at 1000 uM using p-nitrophenyl glycoside as substrate by spectrometric assay relative to control
T4 sequence (whole entry): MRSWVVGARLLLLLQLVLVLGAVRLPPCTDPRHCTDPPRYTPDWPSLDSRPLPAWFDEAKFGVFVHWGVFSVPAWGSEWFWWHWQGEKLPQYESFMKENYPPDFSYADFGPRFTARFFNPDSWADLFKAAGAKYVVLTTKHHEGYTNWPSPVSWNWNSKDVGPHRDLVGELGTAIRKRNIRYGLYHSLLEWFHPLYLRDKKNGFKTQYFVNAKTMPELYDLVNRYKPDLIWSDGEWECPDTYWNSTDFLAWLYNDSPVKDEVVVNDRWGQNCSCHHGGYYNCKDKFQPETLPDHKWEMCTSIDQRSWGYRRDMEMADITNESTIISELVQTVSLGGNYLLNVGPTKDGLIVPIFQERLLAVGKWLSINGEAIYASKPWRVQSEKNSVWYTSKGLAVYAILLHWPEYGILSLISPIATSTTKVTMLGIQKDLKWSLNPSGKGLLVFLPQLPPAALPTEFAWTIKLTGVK

Bos taurus [7] = species on record: Bos taurus; test: Inhibition of bovine liver beta-glucosidase assessed as release of p-nitrophenol at 1000 uM using p-nitrophenyl glycoside as substrate by spectrometric assay relative to control
Bos taurus [8] = species on record: Bos taurus; test: Inhibition of bovine liver beta-galactosidase assessed as release of p-nitrophenol at 1000 uM using p-nitrophenyl glycoside as substrate by spectrometric assay relative to control
Saccharomyces cerevisiae = test: Inhibition of yeast alpha-glucosidase assessed as release of p-nitrophenol at 1000 uM using p-nitrophenyl glycoside as substrate by spectrometric assay relative to control
Oryza sativa = test: Inhibition of rice alpha-glucosidase assessed as release of p-nitrophenol at 1000 uM using p-nitrophenyl glycoside as substrate by spectrometric assay relative to control
Rattus norvegicus = species on record: Rattus norvegicus; test: Inhibition of rat intestinal alpha-trehalase assessed as release of p-nitrophenol at 1000 uM using p-nitrophenyl glycoside as substrate by spectrometric assay relative to control
[9] = biological target: T1, Lysosomal alpha-glucosidase; test: Inhibition of human lysosomal alpha glucosidase assessed as release of p-nitrophenol at 1000 uM using p-nitrophenyl glycoside as substrate by spectrometric assay relative to control
[10] = biological target: Sucrase-isomaltase, intestinal (Rattus norvegicus) (UniProt P23739); test: Inhibition of rat intestinal sucrase assessed as release of p-nitrophenol at 1000 uM using p-nitrophenyl glycoside as substrate by spectrometric assay relative to control
Sucrase-isomaltase, intestinal (Rattus norvegicus), sequence (P23739 1-1013 limits assumed): as the sequence (P23739 1-1013 limits assumed) above
Sucrase-isomaltase, intestinal (Rattus norvegicus), sequence (P23739 1014-1841 limits assumed): as the sequence (P23739 1014-1841 limits assumed) above

[11] = biological target: T3, Sucrase-isomaltase, intestinal; test: Inhibition of rat intestinal isomaltase assessed as release of p-nitrophenol using p-nitrophenyl glycoside as substrate by spectrometric assay
[12] = Inhibition of rice alpha-glucosidase assessed as release of p-nitrophenol using p-nitrophenyl glycoside as substrate by spectrometric assay; design: species or system Oryza sativa
[13] = Inhibition of Escherichia coli beta-glucuronidase assessed as release of p-nitrophenol using p-nitrophenyl glycoside as substrate by spectrometric assay
[14] = Inhibition of yeast alpha-glucosidase assessed as release of p-nitrophenol using p-nitrophenyl glycoside as substrate by spectrometric assay; design: species or system Saccharomyces cerevisiae
[15] = Inhibition of bovine liver beta-galactosidase assessed as release of p-nitrophenol using p-nitrophenyl glycoside as substrate by spectrometric assay; design: species or system Bos taurus
[16] = Inhibition of bovine liver beta-glucosidase assessed as release of p-nitrophenol using p-nitrophenyl glycoside as substrate by spectrometric assay; design: species or system Bos taurus
[17] = Inhibition of Aspergillus niger amyloglucosidase assessed as release of p-nitrophenol using p-nitrophenyl glycoside as substrate by spectrometric assay
[18] = Inhibition of porcine kidney alpha-trehalase assessed as release of p-nitrophenol using p-nitrophenyl glycoside as substrate by spectrometric assay; design: species or system Sus scrofa

Row | Compound | inhibition (Helix pomatia) | inhibition (Aspergillus niger) | IC50 [1] | inhibition (Escherichia coli) | inhibition (Bos taurus [2]) | inhibition [3] | inhibition (Prunus dulcis) | inhibition (Penicillium decumbens) | inhibition [4] | inhibition (Sus scrofa) | IC50 [5] | inhibition [6] | inhibition (Bos taurus [7]) | inhibition (Bos taurus [8]) | inhibition (Saccharomyces cerevisiae) | IC50 [11] | IC50 [16] | other results
1 | OC[C@@]1(c2cccc(F)c2)NC[C@@H](O)[C@@H]1O | 0% | 8.3% |  | 0% | 26.2% | 0% | 0.9% | 0% | 0% | 3.8% | 6.5 µM | 0% | 16.7% | 21.7% | 41.8% |  |  | inhibition (Oryza sativa): 1.4%; inhibition (Rattus norvegicus): 0%; inhibition [9]: 10.3%
2 | OC[C@@]1(c2ccccc2)NC[C@@H](O)[C@@H]1O | 0% | 0% |  | 7.3% | 1.8% | 0% | 2.3% | 0% | 9.9% | 0.8% |  | 0% | 29.6% | 34.1% | 22% |  |  | inhibition (Oryza sativa): 18.6%; inhibition [10]: 42.8%; inhibition [9]: 35%
3 | CCCC[C@]1(CO)NC[C@@H](O)[C@@H]1O | 3.6% | 2% | 79 µM |  | 7.2% | 1.9% | 8% | 11.3% | 4.6% | 2.4% | 2.3 µM | 20.8% | 34.3% | 36.9% | 32.7% |  |  | IC50 [12]: 59 µM; IC50 [13]: 774 µM
4 | CCCCCCCCC[C@]1(CO)NC[C@@H](O)[C@@H]1O | 0% | 3.9% | 130 µM | 31.6% | 4.6% | 0% | 6.8% | 0% | 2.5% | 6.4% | 455 µM | 0% | 49.2% |  |  |  |  | IC50 [14]: 116 µM; IC50 [15]: 477 µM; IC50 [12]: 727 µM
5 | COc1ccc([C@]2(CO)NC[C@@H](O)[C@@H]2O)cc1 | 0% | 0% |  | 25% | 5.9% | 0.2% | 2.7% | 0% | 7.5% | 3% | 107 µM | 2.7% | 33.5% | 41% | 22% |  |  | inhibition (Oryza sativa): 37.8%; inhibition [9]: 40.2%
6 | OC[C@H]1NC[C@@H](O)[C@@H]1O | < 50% |  |  |  |  |  |  | < 50% |  |  |  |  |  | < 50% |  |  | 638 µM | IC50 [14]: 0.15 µM; IC50 [17]: 362 µM; IC50 [18]: 4.8 µM

Now from value to compound, other results behind:

Row | inhibition (Helix pomatia) | inhibition (Aspergillus niger) | IC50 [1] | inhibition (Escherichia coli) | inhibition (Bos taurus [2]) | inhibition [3] | inhibition (Prunus dulcis) | inhibition (Penicillium decumbens) | inhibition [4] | inhibition (Sus scrofa) | IC50 [5] | inhibition [6] | inhibition (Bos taurus [7]) | inhibition (Bos taurus [8]) | inhibition (Saccharomyces cerevisiae) | IC50 [11] | IC50 [16] | Compound | other results
7 | 0% | 4.7% | 16 µM | 4.8% | 4.3% | 3.8% | 6.8% | 10.1% | 0.6% | 3.9% | 2.2 µM | 10.9% | 35.7% | 37.6% | 12.4% |  |  | C[C@]1(CO)NC[C@@H](O)[C@@H]1O | 
8 |  |  | 601 µM |  |  |  | 7.1% |  |  |  | 0.33 µM |  | 43% |  |  | 650 µM |  | COc1ccc([C@@]2(CO)NC[C@H](O)[C@H]2O)cc1 | 
9 | 0% | 8.3% |  | 0% | 8.7% | 0% | 7.8% | 7.4% | 0% | 0% | 1 µM | 3.3% | 16.7% | 22.6% |  |  |  | Cc1ccc([C@@]2(CO)NC[C@H](O)[C@H]2O)cc1 | IC50 [14]: 57 µM; IC50 [12]: 697 µM; inhibition (Rattus norvegicus): 12.9%; inhibition [9]: 45.9%
10 |  |  | 0.63 µM |  |  |  | 0.9% |  |  |  | 0.48 µM |  |  |  |  | 32 µM | 71 µM | OC[C@]1(c2ccccc2)NC[C@H](O)[C@H]1O | 
11 |  |  | 2.4 µM |  |  |  | 0.9% |  |  |  | 0.23 µM |  |  |  |  | 13 µM | 226 µM | CCCC[C@@]1(CO)NC[C@H](O)[C@H]1O | 
12 |  |  | 5.6 µM |  |  |  | 6.2% |  |  |  | 0.64 µM |  |  |  |  | 2 µM | 183 µM | C[C@@]1(CO)NC[C@H](O)[C@H]1O | 
13 |  |  | 3.7 µM |  |  |  | 0% |  |  |  | 0.68 µM |  |  |  |  | 113 µM | 430 µM | CCCCCCCCC[C@@]1(CO)NC[C@H](O)[C@H]1O | 
14 | 0% | 8.3% | 776 µM | 0% | 10.7% | 0% | 7.8% | 0% | 1.6% | 12.9% | 1.7 µM | 0% | 30% | 38.9% |  |  |  | COc1cccc([C@]2(CO)NC[C@@H](O)[C@@H]2O)c1 | IC50 [14]: 9.8 µM; IC50 [12]: 758 µM; inhibition (Rattus norvegicus): 0%
